We go through 1 substance from patent publication US7968526B2, “Antisense oligonucleotides directed to ribonucleotide reductase R2 and uses thereof in the treatment of cancer” (Lorus Therapeutics Inc., priority 2003, dated 2011).

Data set [1] concerns NCI-H460 human lung cancer cells. Put plainly: NCI-H460 lung tumour growth in CD-1 nude mice (3.5). In kind it is in vivo, human cells in mice. Here is the method: Treatments lasted for 14 days thereafter. Antitumour activities were estimated by the inhibition of tumour volume, which was measured with a caliper on four different occasions over the treatment period. Each point represents mean tumour volume calculated from 5 animals per experimental group. […] Control animals (control) received saline alone for the same period. At the end of the treatments, the animals were sacrificed, tumours were excised and their weights were measured. Each bar represents mean tumour weight calculated from 6 animals per experimental group. […] Treatments lasted for 24 days thereafter. Antitumour activities were estimated by the inhibition of tumour volume, which was measured with a caliper at two-day intervals over the treatment period. Each point represents mean tumour volume calculated from 4 animals per experimental group. […] Treatments lasted for 24 days thereafter. Antitumour activities were estimated by the inhibition of tumour volume, which was measured with a caliper at two-day intervals over the treatment period. Each point represents mean tumour volume calculated from 4 animals per experimental group. […] Each point represents mean tumour volume calculated from 5 animals per experimental group. […] Antitumour activities were estimated by the inhibition of tumour volume, which was measured with a caliper on four different occasions over 16-day period. Each point represents mean tumour volume calculated from 5 animals per experimental group. […] Antitumour activities were estimated by the inhibition of tumour volume, which was measured with a caliper at two-day intervals over the treatment period. Each point represents mean tumour volume calculated from 5 animals per experimental group. […] Antitumour activities were estimated by the inhibition of tumour volume, which was measured with a caliper at various time intervals over the span of 30 days. Each point represents mean tumour volume calculated from 6 animals per experimental group. […] Antitumour activities were estimated by the inhibition of tumour volume, which was measured with a caliper. […]

In data set [2] the test system is HT-29 human colon cancer cells. Nature of the data set: HT-29 colon tumour growth in CD-1 nude mice, SEQ ID NO:1 alone (3.1). Format: in vivo, human cells in mice. Here is the method: Treatments lasted for 14 days thereafter. Antitumour activities were estimated by the inhibition of tumour volume, which was measured with a caliper on four different occasions over the treatment period. Each point represents mean tumour volume calculated from 5 animals per experimental group. […] Control animals (control) received saline alone for the same period. At the end of the treatments, the animals were sacrificed, tumours were excised and their weights were measured. Each bar represents mean tumour weight calculated from 6 animals per experimental group. […] Treatments lasted for 24 days thereafter. Antitumour activities were estimated by the inhibition of tumour volume, which was measured with a caliper at two-day intervals over the treatment period. Each point represents mean tumour volume calculated from 4 animals per experimental group. […] Treatments lasted for 24 days thereafter. Antitumour activities were estimated by the inhibition of tumour volume, which was measured with a caliper at two-day intervals over the treatment period. Each point represents mean tumour volume calculated from 4 animals per experimental group. […] Treatments lasted for 22 days thereafter. […] Each point represents mean tumour volume calculated from 5 animals per experimental group. […] Treatments lasted for 14 days thereafter. Antitumour activities were estimated by the inhibition of tumour volume, which was measured with a caliper on four different occasions over 16-day period. Each point represents mean tumour volume calculated from 5 animals per experimental group. […] Two different batches of SEQ ID NO:1, synthesized at different times (designated as batch 1 and batch 2), were tested to detect possible batch-specific effects. […] Treatments lasted for 34 days thereafter. Antitumour activities were estimated by the inhibition of tumour volume, which was measured with a caliper at two-day intervals over the treatment period. Each point represents mean tumour volume calculated from 5 animals per experimental group. […] Treatments lasted for 30 days thereafter. Antitumour activities were estimated by the inhibition of tumour volume, which was measured with a caliper at various time intervals over the span of 30 days. Each point represents mean tumour volume calculated from 6 animals per experimental group. […] All treatments were stopped at day 36. Antitumour activities were estimated by the inhibition of tumour volume, which was measured with a caliper. Each point represents mean tumour volume calculated from 5 animals per experimental group. […] All treatments were stopped at day 52. Mice treated with saline or one of the three chemotherapeutic agents were sacrificed at day 80 because the tumour became too large. Mice treated with SEQ ID NO:1 were kept for 16 days further to observe possible resurgence of resistant tumour growth. Antitumour activities were estimated by the inhibition of tumour volume, which was measured with a caliper.

The subject of data set [3] is C8161 human metastatic melanoma cells. Put plainly: Experimental metastasis assay, C8161 cells, treatment post tumour cell injection. The note with it: C8161 cells i.v. into SCID mice; treatment initiated after 2 days; lungs 5-7 weeks later. In kind it is in vivo, human cells in mice. Here is the method: C8161 human melanoma cells were seeded into 100 mm tissue culture dishes at a density of 2×10^6 and incubated overnight at 37° C. in α-MEM medium supplemented with 10% FBS. The cells were trypsinized, collected by centrifugation and aliquots were removed from the suspension to determine the cell viability using trypan blue exclusion test. […] Treatment was initiated after 2 days. Estimates of the number of lung nodules were made 5-7 weeks later, after excised lungs from individual mice were stained with picric acid dye solution (75% picric acid, 20% formaldehyde, 5% glacial acetic acid).
Murine R3 fibrosarcoma and human C8161 melanoma cells injected into the tail vein of mice form observable lung nodules 2 weeks post-injection. […] To more accurately reflect the clinical situation, mice were treated with SEQ ID NO:1 post tumour cell injection. C8161 human metastatic melanoma cells were seeded into 100 mm tissue culture dishes at a density of 2×10^6 and incubated overnight at 37° C. in α-MEM medium supplemented with 10% FBS. The cells were trypsinized, collected by centrifugation and aliquots were removed from the suspension to determine the cell viability using trypan blue exclusion test. Approximately 1×10^5 cells suspended in 0.1 ml of PBS were injected into the tail veins of 6-8 week old female SCID mice. Treatment was initiated after 2 days. Estimates of the number of lung nodules were made 5-7 weeks later, after excised lungs from individual mice were stained with picric acid dye solution (75% picric acid, 20% formaldehyde, 5% glacial acetic acid). The results are shown in FIG. 31, bars represent the mean number of nodules per mouse with standard error.

Data set [4] concerns mouse fibrosarcoma (R3) cells. Put plainly: Experimental metastasis of R3 cells treated ex vivo, lung nodules in C3H mice (4.1). The note with it: for Formation of lung colonies / nodules: R3 cells treated with 0.2 μM + Lipofectin for 4 hr before i.v. injection into C3H mice. As for the experimental part:
• 4.1 Experimental metastasis of mouse fibrosarcoma (R3) cells treated with different antisense oligonucleotides in a syngenetic model was estimated as follows. Aliquots of R3 cell suspension were seeded into 100 mm tissue culture dishes at a density of 2×10^6 and incubated overnight at 37° C. in α-MEM medium supplemented with 10% FBS. Cells were washed once in 10 ml of PBS and treated with 0.2 μM of SEQ ID NO: 1 in the presence of cationic lipid (Lipofectin reagent, final concentration, 10 μg/ml, Gibco BRL) for 4 hr. Cells were treated with either saline alone (C) or lipofectin alone (RE) as controls. Oligonucleotide was removed by washing the cells once with PBS and the cells were trypsinized. Cells were then collected by centrifugation, and approximately 1×10^5 cells suspended in 0.2 ml of PBS were injected into the tail veins of 10 week-old C3H female mice. Estimates of the number of lung tumours were made 20 days later, after excised lungs from individual mice were stained with picric acid dye solution (75% picric acid, 20% formaldehyde, 5% glacial acetic acid). Bars represent mean number of tumour nodules in lungs obtained from 4 to 5 animals per experimental group. […] Aliquots of C8161 cell suspension were seeded into 100 mm tissue culture dishes at a density of 2×10^6 and incubated overnight at 37° C. in α-MEM medium supplemented with 10% FBS. Cells were washed once in 10 ml of PBS and treated with 0.2 μM of SEQ ID NO: 1 in the presence of cationic lipid (Lipofectin reagent, final concentration, 10 μg/ml, Gibco BRL) for 4 hr. Cells were treated with lipofectin alone (CONTROL) as a control. SEQ ID NO:1 was removed by washing the cells once with PBS and the cells were trypsinized. Cells were then collected by centrifugation, and approximately 1×10^5 cells suspended in 0.2 ml of PBS were injected into the tail veins of 6-8 week-old CD-1 athymic female nude mice. Estimates of the number of lung tumours were made 4 weeks later, after excised lungs from individual mice were stained with picric acid dye solution (75% picric acid, 20% formaldehyde, 5% glacial acetic acid). […]

“5′-GGCTAAATCGCTCCACCAAG-3′ (all phosphorothioate, sugars by position and methylation of C not given here) [SEQ ID NO: 1, fully phosphorothioated antisense oligonucleotide that hybridizes to the coding region of R2 mRNA]”: the results for the “Inhibition of tumour weight” value in data set [1] (Human Lung Carcinoma) and in data set [2] (Human Colon Adenocarcinoma) were about 70% and about 80%, respectively. Moreover, the “Inhibition of tumour size” value in data set [1] (Human Lung Carcinoma in CD-1 Nude mice, Days 14 to 19 after tumour implantation) was “Inhibition of tumour size by approximately 85%”; in data set [2] (Human Colon Adenocarcinoma in CD-1 nude mice, Day 18 after tumour implantation) it was “approximately 80% on Day 18 after tumour”. The “Inhibitory effect on tumour growth (tumour volume, FIG. 18D)” value in data set [1] (NCI-H460, CD-1 nude mice, 10 mg/kg i.v. every other day, 14 days) is given as “strong inhibitory effects on the growth of human lung carcinoma”. For the same substance, the “Inhibitory effect on tumour growth (tumour volume, FIG. 17A)” value in data set [2] (HT-29, CD-1 nude mice, 10 mg/kg i.v. every other day, 14 days) is recorded as “statistically significant inhibitory effects”. In data set [2] (HT-29, CD-1 nude mice, 0.4-6.0 mg/kg i.v. every other day for 14 days), the “Inhibitory effect on tumour growth (tumour weight, FIG. 17B)” value was “statistically significant inhibitory effects on the growth of human colon adenocarcinoma in a dose-dependent manner”. The “Dose dependence of tumour weight” value in data set [2] (in vivo) is recorded as “Dose-dependent decrease in tumour weight in”. Moreover, in data set [3], the “Lung nodule formation / anti-metastatic activity (FIG. 31)” value is recorded as “only one of the 9 mice had lung nodules”. The “Decrease in the number of tumour metastases to lungs” value in data set [4] (Mouse Fibrosarcoma (ex vivo)) was “Decrease by approximately 65% in the number”. Further, the “Formation of lung colonies / nodules” value in data set [4] was “significantly reduced the formation of lung colonies”; in data set [4] (listed as SEQ ID NO:1) it was “significantly reduces the extent of lung nodule formation”.
